# Test results taken from publication PMC5382548 (Scientific Reports, 2015).
# Experiments:
# [1] = system: colon cancer cell lines with mutated KRAS; assay: Anti-proliferative activity, colon cancer cell lines with mutated KRAS; format: cell-based; conditions: Homo sapiens; range over HCT116 and SW620
# Source text: These differences may be due to differing effects on cellular proliferation mechanisms, on cellular uptake and/or intracellular distribution. Assuming a passive diffusion membrane transport for IQcs, compound 2d is expected to accumulate more inside cells due to its predicted higher lipophilicity than compounds with an additional protonated basic group at physiologic pH (3d and 3e). Similarly, the tetra-cationic porphyrin TMPyP4, which is known to have low cell-membrane permeability, gave higher IC50 values.
# HCT116 human colon carcinoma cells, SW620 human colorectal adenocarcinoma and HEK293 T human embryonic kidney cells were grown in Dulbecco's modified Eagle's medium (DMEM) supplemented with 10% fetal bovine serum, and 1% antibiotic/antimycotic (Invitrogen, Grand Island, NY, USA) and maintained at 37°C in a humidified atmosphere of 5% CO2. […] Following 72 h of compound exposure, cell viability was evaluated using the CellTiter 96 AQueous Non-Radioactive Cell Proliferation Assay (Promega, Madison, WI, USA), using 3-(4,5-dimethylthiazol-2-yl)-5-(3-carboxymethoxyphenyl)-2-(4-sulfophenyl)-2H-tetrazolium, inner salt (MTS) as previously described. Cell viability data were expressed as mean ± SEM or mean ± SD from at least three independent experiments. IC50 and IC65 values were determined using GaphPad Prism v.5.00 (GraphPad Software). […]
# KRAS21R G4 = assay: FRET melting competition assay, labelled KRAS21R; format: binding, human; conditions: ligand 1 μM, labelled KRAS21R 0.2 μM
# Description: To assess selectivity of the IQc compounds 2d and 3e to different DNA sequences, we performed competitive FRET experiments with 0.2 μM of labelled KRAS21R and F21T G4 and increasing concentrations of two non-fluorescent competitors, 26mer ds-DNA or the human telomeric sequence (HT21). A decrease in ΔTm indicates the displacement of the ligand from labelled G4 by the competitor DNA.
# Figure 3 FRET melting competition assay data for (a) 2d and (b) 3e (1 μM) in complex with KRAS21R and F21T G4s (0.2 μM), with increasing concentrations of non-labeled 26ds, HT21 or KRAS21R (0.4 to 25 μM) competitor, in K-cacodylate buffer (pH 7.4, 60 mM K^+).
# Oligonucleotide sequences were purchased from Eurofins MWG Synthesis GmbH, Germany or STAB VIDA Genomics Lab, Caparica, Lisbon, Portugal. The labelled oligonucleotides used in the FRET assays had attached the donor fluorophore FAM (6-carboxyfluorescein) and the acceptor fluorophore TAMRA (6-carboxytetramethylrhodamine): KRAS21R: 5′-FAM-[…]-TAMRA-3′; KRAS32R: 5′-FAM-[…]-TAMRA-3′; UTR-1: 5′-FAM-GCGGCGGCGGAGG-TAMRA-3′; UTR-2: 5′-FAM-[…]-TAMRA-3; T-Loop:5′-FAM-[…]-TAMRA-3′; F21T: 5′-FAM-[…]-TAMRA-3′. Non-labelled oligonucleotides were used in FRET competition assays and in the spectroscopic studies: ds26: - d(5′-CAATCGGATCGAATT CGATCCGATTG-3′); KRAS21R: 5′-[…]-3′; HT21: 5′-[…]-3′. […]
# [2] = system: KRAS mRNA in Panc-1 cells; set-up: method as in PMID 18490377; conditions: 12 or 24 hours, 50 μM; cited from earlier work
# mouse KRAS promoter = system: mouse KRAS promoter; set-up: method as in PMID 16687659; conditions: 3–20 μM 24 hours prior to transfection; cited from earlier work
structure (smiles),measurement,setting,value
CCN(CC)CCCNc1ccc2c(c1)c1[nH]c3ccccc3c1c[n+]2C [2d],IC50,[1],140 to 500 nM
CCN(CC)CCCNc1ccc2c(c1)[nH]c1c2c[n+](C)c2ccc(NCCCN(CC)CC)cc12.[Cl-] [3e],Concentration of HT21 required to displace ligand from its complex with KRAS21R,KRAS21R G4,> 10 µM
same,Fold higher concentration of HT21 required to displace ligand from its complex with KRAS21R,KRAS21R G4,more than 50 fold
"C[n+]1ccc(-c2c3nc(c(-c4cc[n+](C)cc4)c4ccc([nH]4)c(-c4cc[n+](C)cc4)c4ccc([nH]4)c(-c4cc[n+](C)cc4)c4nc2C=C4)C=C3)cc1 [TMPyP4, reference compound]",Decrease in KRAS mRNA levels,[2],~30%
same,Reduction of mouse KRAS promoter activity,mouse KRAS promoter,80%
